Laboratory results: ChEMBL document CHEMBL1909046, “DrugMatrix in vitro pharmacology data”

Assays:
[1] = target: T1, Alpha-2C adrenergic receptor (Homo sapiens, UniProt P18825); test: DRUGMATRIX: Adrenergic Alpha-2C radioligand binding (ligand: [3H] MK-912); assay type: cell membranes, Sf9, Membrane; details: sf9
T1 sequence (P18825 whole entry): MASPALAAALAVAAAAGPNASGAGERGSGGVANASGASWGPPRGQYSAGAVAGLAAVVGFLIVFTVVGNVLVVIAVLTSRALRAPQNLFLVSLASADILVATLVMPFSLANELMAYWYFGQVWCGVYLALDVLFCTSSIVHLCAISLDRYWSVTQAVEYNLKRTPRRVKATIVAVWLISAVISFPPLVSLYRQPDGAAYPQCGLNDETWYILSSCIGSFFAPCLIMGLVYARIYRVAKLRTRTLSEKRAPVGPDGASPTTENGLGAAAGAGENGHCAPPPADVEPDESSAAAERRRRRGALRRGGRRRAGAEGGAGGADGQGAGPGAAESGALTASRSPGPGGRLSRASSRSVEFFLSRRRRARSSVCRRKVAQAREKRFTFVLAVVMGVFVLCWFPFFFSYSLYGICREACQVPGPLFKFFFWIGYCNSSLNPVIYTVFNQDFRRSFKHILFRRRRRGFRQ

[2] = DRUGMATRIX: Atrial Natriuretic Factor (ANF) radioligand binding (ligand: [125I] ANF (rat)); assay type: cell membranes, Cavia porcellus, Dunkin-Hartley, Adrenal gland, Membrane; details: Not Active = under 50% inhibition at 10 µM
[3] = target: Sigma non-opioid intracellular receptor 1 (Homo sapiens, UniProt Q99720); test: DRUGMATRIX: Sigma1 radioligand binding (ligand: [3H] Haloperidol); assay type: cell membranes, Jurkat, Membrane; details: jurkat; Not Active = under 50% inhibition at 10 µM
Sequence of Sigma non-opioid intracellular receptor 1 (Q99720 whole entry): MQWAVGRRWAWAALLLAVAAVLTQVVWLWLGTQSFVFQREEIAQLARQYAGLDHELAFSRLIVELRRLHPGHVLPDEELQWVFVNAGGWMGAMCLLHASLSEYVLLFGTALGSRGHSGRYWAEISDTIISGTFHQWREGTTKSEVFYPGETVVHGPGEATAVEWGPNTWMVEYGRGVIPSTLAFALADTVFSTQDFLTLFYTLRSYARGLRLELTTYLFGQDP

Substance-K receptor = target: T2, Substance-K receptor (Homo sapiens, UniProt P21452); assay type: cell membranes, CHO, Membrane; details: cho; note: in other assays of this panel Not Active means under 50% inhibition at 10 µM
T2 sequence (P21452 whole entry): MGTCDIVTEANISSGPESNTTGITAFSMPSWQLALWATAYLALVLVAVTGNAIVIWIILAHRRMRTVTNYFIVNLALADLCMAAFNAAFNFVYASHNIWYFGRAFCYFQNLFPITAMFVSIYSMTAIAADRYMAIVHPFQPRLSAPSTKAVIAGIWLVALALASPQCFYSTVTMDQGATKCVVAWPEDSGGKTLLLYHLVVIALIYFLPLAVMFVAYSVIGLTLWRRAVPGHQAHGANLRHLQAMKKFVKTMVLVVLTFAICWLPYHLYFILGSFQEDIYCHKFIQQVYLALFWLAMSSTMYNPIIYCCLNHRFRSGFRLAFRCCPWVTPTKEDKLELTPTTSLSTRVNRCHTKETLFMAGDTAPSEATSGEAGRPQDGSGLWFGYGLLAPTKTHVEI

[4] = target: C-C chemokine receptor type 2 (Homo sapiens, UniProt P41597); assay type: cell membranes, CHO-K1, Membrane; details: cho-k1; note: in other assays of this panel Not Active means under 50% inhibition at 10 µM
Sequence of C-C chemokine receptor type 2 (P41597 whole entry): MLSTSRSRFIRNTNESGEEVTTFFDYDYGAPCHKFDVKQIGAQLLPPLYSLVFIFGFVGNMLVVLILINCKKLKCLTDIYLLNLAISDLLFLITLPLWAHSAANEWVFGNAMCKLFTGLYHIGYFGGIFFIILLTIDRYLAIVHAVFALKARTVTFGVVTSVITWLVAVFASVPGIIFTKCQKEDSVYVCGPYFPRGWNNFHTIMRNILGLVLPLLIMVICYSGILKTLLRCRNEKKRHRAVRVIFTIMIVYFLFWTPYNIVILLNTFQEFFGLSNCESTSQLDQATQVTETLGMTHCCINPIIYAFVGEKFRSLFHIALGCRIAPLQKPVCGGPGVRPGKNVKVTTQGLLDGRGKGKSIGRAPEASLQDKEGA

[5] = target: T3, C-C chemokine receptor type 4 (Homo sapiens, UniProt P51679); assay type: cell membranes, Membrane; details: chem-1; note: in other assays of this panel Not Active means under 50% inhibition at 10 µM
T3 sequence (P51679 whole entry): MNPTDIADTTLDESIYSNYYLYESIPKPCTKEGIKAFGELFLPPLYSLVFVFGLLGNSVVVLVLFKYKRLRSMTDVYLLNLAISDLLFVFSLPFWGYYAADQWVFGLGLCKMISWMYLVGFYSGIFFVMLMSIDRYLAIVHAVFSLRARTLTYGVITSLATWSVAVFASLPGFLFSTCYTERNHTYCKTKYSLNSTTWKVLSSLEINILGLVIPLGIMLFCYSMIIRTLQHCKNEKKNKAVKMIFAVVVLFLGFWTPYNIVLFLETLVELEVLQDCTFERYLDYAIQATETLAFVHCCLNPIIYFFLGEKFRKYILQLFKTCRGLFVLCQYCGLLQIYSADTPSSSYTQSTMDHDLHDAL

[6] = target: C-C chemokine receptor type 5 (Homo sapiens, UniProt P51681); assay type: cell membranes, Membrane; details: hek293; note: in other assays of this panel Not Active means under 50% inhibition at 10 µM
Sequence of C-C chemokine receptor type 5 (P51681 whole entry): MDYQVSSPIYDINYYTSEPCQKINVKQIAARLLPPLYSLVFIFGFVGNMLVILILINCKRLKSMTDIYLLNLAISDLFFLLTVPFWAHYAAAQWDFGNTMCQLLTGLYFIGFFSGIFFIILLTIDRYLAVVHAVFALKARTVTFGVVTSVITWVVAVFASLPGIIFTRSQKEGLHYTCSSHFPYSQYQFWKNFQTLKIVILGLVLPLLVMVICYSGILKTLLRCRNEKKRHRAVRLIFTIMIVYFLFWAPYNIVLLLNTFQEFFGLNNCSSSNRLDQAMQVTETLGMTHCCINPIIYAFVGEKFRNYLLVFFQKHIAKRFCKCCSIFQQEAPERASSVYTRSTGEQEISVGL

[7] = target: T4, C-X-C chemokine receptor type 2 (Homo sapiens, UniProt P25025); assay type: cell membranes, Membrane; details: cho-k1; note: in other assays of this panel Not Active means under 50% inhibition at 10 µM
T4 sequence (P25025 whole entry): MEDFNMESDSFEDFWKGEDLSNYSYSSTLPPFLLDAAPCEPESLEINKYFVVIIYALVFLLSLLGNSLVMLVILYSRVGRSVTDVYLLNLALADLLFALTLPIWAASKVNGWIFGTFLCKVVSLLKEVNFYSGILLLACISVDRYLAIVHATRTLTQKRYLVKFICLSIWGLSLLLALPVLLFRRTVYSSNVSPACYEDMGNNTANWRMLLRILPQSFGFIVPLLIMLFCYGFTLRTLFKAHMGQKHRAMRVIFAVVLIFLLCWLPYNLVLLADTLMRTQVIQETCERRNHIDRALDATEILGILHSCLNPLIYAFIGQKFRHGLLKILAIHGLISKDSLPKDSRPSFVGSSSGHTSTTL

D(1A) dopamine receptor = D(1A) dopamine receptor (Homo sapiens, UniProt P21728); test: DRUGMATRIX: Dopamine D1 radioligand binding (ligand: [3H] SCH-23390); assay type: cell membranes, CHO, Membrane; details: cho; Not Active = under 50% inhibition at 10 µM
Sequence of D(1A) dopamine receptor (P21728 whole entry): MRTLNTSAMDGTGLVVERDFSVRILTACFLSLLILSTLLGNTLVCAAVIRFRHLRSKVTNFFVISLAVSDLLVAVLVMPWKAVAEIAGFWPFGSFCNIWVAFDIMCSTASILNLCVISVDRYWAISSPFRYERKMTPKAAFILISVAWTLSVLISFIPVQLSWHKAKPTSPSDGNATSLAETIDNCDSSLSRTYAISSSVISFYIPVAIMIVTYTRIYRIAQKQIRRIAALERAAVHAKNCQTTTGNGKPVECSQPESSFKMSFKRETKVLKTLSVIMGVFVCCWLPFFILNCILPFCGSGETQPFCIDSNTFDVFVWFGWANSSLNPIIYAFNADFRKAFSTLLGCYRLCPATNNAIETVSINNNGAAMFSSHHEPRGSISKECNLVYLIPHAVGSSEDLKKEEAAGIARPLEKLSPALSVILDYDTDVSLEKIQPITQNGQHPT

[8] = DRUGMATRIX: Glutamate, Kainate radioligand binding (ligand: [3H] Kainic acid); assay type: cell membranes, Rattus norvegicus, Wistar, Brain, Membrane; details: Not Active = under 50% inhibition at 10 µM
[9] = DRUGMATRIX: Leukotriene, BLT (LTB4) radioligand binding (ligand: [3H]LTB4); assay type: cell membranes, Membrane; details: u-937; Not Active = under 50% inhibition at 10 µM
[10] = target: Delta-type opioid receptor (Homo sapiens, UniProt P41143); assay type: cell membranes, HEK293, Membrane; details: hek293; note: in other assays of this panel Not Active means under 50% inhibition at 10 µM
Sequence of Delta-type opioid receptor (P41143 whole entry): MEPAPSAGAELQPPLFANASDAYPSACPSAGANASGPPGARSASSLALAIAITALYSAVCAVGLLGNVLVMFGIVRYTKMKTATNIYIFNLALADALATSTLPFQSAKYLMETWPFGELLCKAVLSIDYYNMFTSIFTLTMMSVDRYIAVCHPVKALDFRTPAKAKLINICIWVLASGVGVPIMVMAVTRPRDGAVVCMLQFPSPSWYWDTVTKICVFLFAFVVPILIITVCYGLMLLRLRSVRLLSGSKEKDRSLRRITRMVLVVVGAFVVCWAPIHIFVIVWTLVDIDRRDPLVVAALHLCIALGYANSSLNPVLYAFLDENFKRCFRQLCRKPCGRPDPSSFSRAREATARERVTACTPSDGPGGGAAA

[11] = target: Kappa-type opioid receptor (Homo sapiens, UniProt P41145); test: DRUGMATRIX: Opiate kappa (OP2, KOP) radioligand binding (ligand: [3H] Diprenorphine); assay type: cell membranes, HEK293, Membrane; details: hek293; Not Active = under 50% inhibition at 10 µM
Sequence of Kappa-type opioid receptor (P41145 whole entry): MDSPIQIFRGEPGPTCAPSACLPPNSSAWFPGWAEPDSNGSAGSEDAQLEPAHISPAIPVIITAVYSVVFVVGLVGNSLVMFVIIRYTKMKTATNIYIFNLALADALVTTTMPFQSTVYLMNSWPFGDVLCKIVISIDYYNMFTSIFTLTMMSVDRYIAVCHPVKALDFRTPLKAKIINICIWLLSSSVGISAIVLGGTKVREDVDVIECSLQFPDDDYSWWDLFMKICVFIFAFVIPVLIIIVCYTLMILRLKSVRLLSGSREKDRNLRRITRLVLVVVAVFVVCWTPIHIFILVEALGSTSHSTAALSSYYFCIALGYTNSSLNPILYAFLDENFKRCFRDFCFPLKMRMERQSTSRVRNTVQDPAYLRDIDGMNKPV

[12] = target: cGMP-specific 3',5'-cyclic phosphodiesterase (Homo sapiens, UniProt O76074); test: DRUGMATRIX: Phosphodiesterase PDE5 enzyme inhibition (substrate: [3H]cGMP + cGMP); assay type: tissue-based, Platelet; details: platelet; Not Active = under 50% inhibition at 10 µM
[13] = target: Protein kinase C alpha type (Homo sapiens, UniProt P17252); assay type: cell-based; details: sf9
[14] = target: Mitogen-activated protein kinase 14 (Homo sapiens, UniProt Q16539); set-up: species or system Escherichia coli
Sequence of Mitogen-activated protein kinase 14 (Q16539 whole entry): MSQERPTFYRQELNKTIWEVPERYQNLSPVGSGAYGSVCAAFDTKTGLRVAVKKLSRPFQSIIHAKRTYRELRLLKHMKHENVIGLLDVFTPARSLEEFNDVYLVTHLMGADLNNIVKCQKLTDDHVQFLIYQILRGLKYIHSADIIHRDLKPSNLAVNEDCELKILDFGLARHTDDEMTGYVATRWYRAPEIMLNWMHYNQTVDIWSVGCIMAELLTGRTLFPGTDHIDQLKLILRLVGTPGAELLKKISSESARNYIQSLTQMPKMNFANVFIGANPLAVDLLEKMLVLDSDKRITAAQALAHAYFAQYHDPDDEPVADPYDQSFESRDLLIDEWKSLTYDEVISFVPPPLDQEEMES

NC(=O)c1ccccc1O [SALICYLAMIDE]
Not Active: IC50 [1] | IC50 [2] | Ki [2] | IC50 [3] | IC50 (Substance-K receptor) | IC50 [4] | IC50 [5] | IC50 [6] | IC50 [7] | IC50 (D(1A) dopamine receptor) | IC50 [8] | Ki [8] | IC50 [9] | Ki [9] | IC50 [10] | IC50 [11] | IC50 [12] | IC50 [13] | IC50 [14]

Cc1ncc([N+](=O)[O-])n1CC(C)O (configuration not stated) [SECNIDAZOLE]
Not Active: IC50 [1] | IC50 [2] | Ki [2] | IC50 [3] | IC50 (Substance-K receptor) | IC50 [4] | IC50 [5] | IC50 [6] | IC50 [7] | IC50 (D(1A) dopamine receptor) | IC50 [8] | Ki [8] | IC50 [9] | Ki [9] | IC50 [10] | IC50 [11] | IC50 [12] | IC50 [13] | IC50 [14]

CN[C@@H]1[C@@H](O)[C@@H](O[C@@H]2[C@@H](O)[C@H](O[C@H]3OC(CN)=CC[C@H]3N)[C@@H](N)C[C@H]2N)OC[C@]1(C)O [SISOMICIN]
Not Active: IC50 [1] | IC50 [2] | Ki [2] | IC50 [3] | IC50 (Substance-K receptor) | IC50 [4] | IC50 [5] | IC50 [6] | IC50 [7] | IC50 (D(1A) dopamine receptor) | IC50 [8] | Ki [8] | IC50 [9] | Ki [9] | IC50 [10] | IC50 [11] | IC50 [12] | IC50 [13] | IC50 [14]

CC(=O)S[C@@H]1CC2=CC(=O)CC[C@]2(C)[C@H]2CC[C@@]3(C)[C@@H](CC[C@@]34CCC(=O)O4)[C@H]12 [SPIRONOLACTONE]
Not Active: IC50 [1] | IC50 [2] | Ki [2] | IC50 [3] | IC50 (Substance-K receptor) | IC50 [4] | IC50 [5] | IC50 [6] | IC50 [7] | IC50 (D(1A) dopamine receptor) | IC50 [8] | Ki [8] | IC50 [9] | Ki [9] | IC50 [10] | IC50 [11] | IC50 [12] | IC50 [13] | IC50 [14]

C[C@]12Cc3c[nH]nc3C[C@@H]1CC[C@@H]1[C@@H]2CC[C@@]2(C)[C@H]1CC[C@]2(C)O [STANOZOLOL]
Not Active: IC50 [1] | IC50 [2] | Ki [2] | IC50 [3] | IC50 (Substance-K receptor) | IC50 [4] | IC50 [5] | IC50 [6] | IC50 [7] | IC50 (D(1A) dopamine receptor) | IC50 [8] | Ki [8] | IC50 [9] | Ki [9] | IC50 [10] | IC50 [11] | IC50 [12] | IC50 [13] | IC50 [14]

CN(N=O)C(=O)N[C@@H](C=O)[C@@H](O)[C@H](O)[C@H](O)CO [STREPTOZOCIN]
Not Active: IC50 [1] | IC50 [2] | Ki [2] | IC50 [3] | IC50 (Substance-K receptor) | IC50 [4] | IC50 [5] | IC50 [6] | IC50 [7] | IC50 (D(1A) dopamine receptor) | IC50 [8] | Ki [8] | IC50 [9] | Ki [9] | IC50 [10] | IC50 [11] | IC50 [12] | IC50 [13] | IC50 [14]

Cc1cc(NS(=O)(=O)c2ccc(N)cc2)no1 [SULFAMETHOXAZOLE]
Not Active: IC50 [1] | IC50 [2] | Ki [2] | IC50 [3] | IC50 (Substance-K receptor) | IC50 [4] | IC50 [5] | IC50 [6] | IC50 [7] | IC50 (D(1A) dopamine receptor) | IC50 [8] | Ki [8] | IC50 [9] | Ki [9] | IC50 [10] | IC50 [11] | IC50 [12] | IC50 [13] | IC50 [14]

Nc1ccc(S(N)(=O)=O)cc1 [SULFANILAMIDE]
Not Active: IC50 [1] | IC50 [2] | Ki [2] | IC50 [3] | IC50 (Substance-K receptor) | IC50 [4] | IC50 [5] | IC50 [6] | IC50 [7] | IC50 (D(1A) dopamine receptor) | IC50 [8] | Ki [8] | IC50 [9] | Ki [9] | IC50 [10] | IC50 [11] | IC50 [12] | IC50 [13] | IC50 [14]
